Measurements as given in PMC6273715, “Synthesis and Evaluation of New Benzodioxole- Based Thiosemicarbazone Derivatives as Potential Antitumor Agents” (Molecules, 2016).

What was measured:
[1] = system: A549 human lung adenocarcinoma cells; assay: MTT cytotoxicity assay, A549; type: cell-based; settings: for cytotoxicity (in words): A549, at the concentrations used; for IC50: Homo sapiens, A549, MTT, 24 h, read-out: IC50 A549 Cell Line
Description: (§1) C6 Rat glioma and NIH/3T3 mouse embryonic fibroblast cells were incubated in Dulbecco’s Modified Eagle’s Medium (DMEM) (Sigma, Deisenhofen, Germany) supplemented with 10% fetal calf serum (Gibco, Paisley, UK). A549 Human lung adenocarcinoma cells were incubated in 90% RPMI supplemented with 10% fetal bovine serum (Gibco). […] Exponentially growing cells were plated at 2 × 10^4 cells/mL into 96-well microtiter tissue culture plates (Nunc, Roskilde, Denmark) and incubated for 24 h before the addition of the drugs (the optimum cell number for cytotoxicity assays was determined in preliminary experiments).
(§2) The level of cellular 3-(4,5-dimethylthiazol-2-yl)-2,5-diphenyltetrazolium bromide (MTT) (Sigma) reduction was quantified as previously described in the literature with small modifications. […] At the end of this period, MTT was added to a final concentration of 0.5 mg/mL and the cells were incubated for 4 h at 37 °C. After the medium was removed, the formazan crystals formed by MTT metabolism were solubilized by addition of 200 µL DMSO to each well and absorbance was read at 540 nm with a microtiter plate spectrophotometer (Bio-Tek Plate Reader, Winooski, VT, USA). Every concentration was repeated in three wells.

[2] = system: C6 rat glioma cells; assay: MTT cytotoxicity assay, C6; type: cell-based; settings: for cytotoxicity (in words): C6, at the concentrations used; for IC50: Rattus norvegicus, C6, MTT, 24 h, read-out: IC50 C6 Cell Line
Description: as §1, §2

[3] = system: NIH/3T3 mouse embryonic fibroblast cells; assay: MTT cytotoxicity assay, NIH/3T3; type: cell-based; settings: NIH3T3, 24 h, read-out: IC50 NIH/3T3 Cell Line
Description: C6 Rat glioma and NIH/3T3 mouse embryonic fibroblast cells were incubated in Dulbecco’s Modified Eagle’s Medium (DMEM) (Sigma, Deisenhofen, Germany) supplemented with 10% fetal calf serum (Gibco, Paisley, UK). A549 Human lung adenocarcinoma cells were incubated in 90% RPMI supplemented with 10% fetal bovine serum (Gibco). All media were supplemented with 100 IU/mL penicillin-streptomycin (Gibco) and cells were incubated at 37 °C in a humidified atmosphere of 95% air and 5% CO2. Exponentially growing cells were plated at 2 × 10^4 cells/mL into 96-well microtiter tissue culture plates (Nunc, Roskilde, Denmark) and incubated for 24 h before the addition of the drugs (the optimum cell number for cytotoxicity assays was determined in preliminary experiments). The stock solutions of the compounds were prepared in dimethyl sulfoxide (DMSO; Sigma Aldrich, Poole, UK) and further dilutions were made with fresh culture medium (the concentration of DMSO in the final culture medium was <0.1% which had no effect on the cell viability).
as §2

[4] = target: AChE (Electrophorus electricus, UniProt O42275); assay: biochemical; type: biochemical; settings: for IC50: tested at 5–80 μg/mL
[5] = target: BuChE (Homo sapiens, UniProt P06276); assay: BuChE inhibition, modified Ellman's method; type: biochemical; settings: for IC50: tested at 5–80 μg/mL
[6] = system: A549 cells; assay: DNA synthesis inhibition (BrdU ELISA), A549; type: cell-based, human; settings: A549, compound at its IC50, 24 h
Description: (§3) The immunostaining procedure was carried out with specific anti-BrdU antibodies in the S-phase of the cell cycle. DNA synthesis inhibitory effects of all compounds were evaluated for 24 h. A549 and C6 cell lines were incubated with three different concentrations of the compounds that were determined according to their IC50 values. Cisplatin was used as a positive control.
(§4) Analysis of DNA synthesis was measured by a Cell Proliferation ELISA, BrdU (colorimetric) kit (Roche, Mannheim, Germany). This immunostaining procedure is based on measuring the incorporation of bromodeoxyuridine (BrdU) into nuclear DNA in place of thymidine during the S-phase of the cell cycle using specific anti-BrdU antibodies. […] Firstly cells were seeded into 96 well flat-bottomed microtiter plates at a density of 2 × 10^3. […] Microtiter plates were incubated at 37 °C in a 5% CO2/95% air humidified atmosphere for 24 h. Cells were labeled with 10 µL BrdU solution for 2 h and then fixed. Anti-BrdU-POD (100 µL) was added and incubated for 90 min. Finally, wells were washed with BPS and cells were incubated with substrate. Absorbance of the samples was measured with an ELX808-IU Bio-Tek apparatus at 492 nm. All experiments were repeated two times. For each compound dose, dublicate wells were used.

[7] = system: C6 cells; assay: DNA synthesis inhibition (BrdU ELISA), C6; type: cell-based, rat; settings: C6, compound at its IC50, 24 h
Description: as §3, §4

[8] = system: A549 cells; assay: Annexin V-PI flow cytometry of apoptosis, A549; type: cell-based; settings: IC50 dose, 24 h
Description: (§5) Annexin V staining protocol was applied according to the manufacturer’s instructions (BD Pharmingen). The cells were then briefly washed with cold phosphate buffer saline (PBS) and suspended in a binding buffer at a concentration of 1 × 10^6 cells/mL. Then, 100 µL of this solution containing 1 × 10^5 cells was transferred to a 5 mL test tube. After 5 µL of Annexin-V and PI was added, the cells were incubated for 15 min at room temperature in the dark. Then 400 µL of 1x Binding Buffer was added to each tube and the cells were processed for data acquisition, and analyzed on a Becton–Dickinson FACS Aria using […] Version 6.1.1. Software (BD Biosciences, San Jose, CA, USA).

[9] = system: C6 cells; assay: Annexin V-PI flow cytometry of apoptosis, C6; type: cell-based; settings: IC50 dose, 24 h
Description: as §5

[10] = system: A549 cells; assay: Mitochondrial membrane potential (JC-1) flow cytometry, A549; type: cell-based, human; settings: IC50 dose, 24 h
Description: (§6) During apoptosis, several key events occur in mitochondria including the release of cytochrome c, changes in electron transport, and loss of mitochondrial transmembrane potential (ΔΨm). For this reason, ΔΨm is an important parameter of mitochondrial function in apoptosis.
(§7) The cells were seeded in six-well plates at a density of 10^5 cells/mL, and the IC50 dose of compounds 2, 5 and 10 was added to cells. The cells were incubated in 5% CO2 air-conditioned atmosphere at 37 °C. […] 5,5′,6,6′-Tetrachloro-1,1′,3,3′-tetraethylbenzimidazolylcarbocyanine iodide (JC-1) dye solution (1× assay buffer + JC-1 stock solution) was added to the cells. The stock solution was prepared by dissolving DMSO. Then the samples were incubated at a temperature of 37 °C for 10–15 min. After incubation, the cells were washed twice with an assay buffer and analyzed by BD FACS Aria Cell Sorter Software version 6.1.1 flow cytometry (BD Biosciences). The cells showing mitochondrial membrane potential disruption were determined as a percentage of all cells.

[11] = system: C6 cells; assay: Mitochondrial membrane potential (JC-1) flow cytometry, C6; type: cell-based, rat; settings: IC50 dose, 24 h
Description: as §6, §7

AChE, sequence (O42275 24-633): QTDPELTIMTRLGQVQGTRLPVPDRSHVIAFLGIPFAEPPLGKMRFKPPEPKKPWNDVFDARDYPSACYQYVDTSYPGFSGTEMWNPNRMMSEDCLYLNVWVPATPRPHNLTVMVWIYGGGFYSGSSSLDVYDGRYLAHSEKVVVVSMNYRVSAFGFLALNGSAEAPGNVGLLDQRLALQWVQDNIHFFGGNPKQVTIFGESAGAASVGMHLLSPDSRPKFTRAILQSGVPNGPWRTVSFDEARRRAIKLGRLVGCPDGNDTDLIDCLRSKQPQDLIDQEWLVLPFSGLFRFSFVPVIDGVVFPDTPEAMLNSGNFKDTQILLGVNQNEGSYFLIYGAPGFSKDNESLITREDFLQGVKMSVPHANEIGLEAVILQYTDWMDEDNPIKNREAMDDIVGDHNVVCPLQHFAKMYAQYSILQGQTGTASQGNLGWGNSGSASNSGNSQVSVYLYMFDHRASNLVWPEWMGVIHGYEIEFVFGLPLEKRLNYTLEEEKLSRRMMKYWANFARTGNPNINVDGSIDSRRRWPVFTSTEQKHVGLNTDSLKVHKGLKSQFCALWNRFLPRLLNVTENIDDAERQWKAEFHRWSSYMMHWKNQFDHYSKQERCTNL
BuChE, sequence (P06276 29-602): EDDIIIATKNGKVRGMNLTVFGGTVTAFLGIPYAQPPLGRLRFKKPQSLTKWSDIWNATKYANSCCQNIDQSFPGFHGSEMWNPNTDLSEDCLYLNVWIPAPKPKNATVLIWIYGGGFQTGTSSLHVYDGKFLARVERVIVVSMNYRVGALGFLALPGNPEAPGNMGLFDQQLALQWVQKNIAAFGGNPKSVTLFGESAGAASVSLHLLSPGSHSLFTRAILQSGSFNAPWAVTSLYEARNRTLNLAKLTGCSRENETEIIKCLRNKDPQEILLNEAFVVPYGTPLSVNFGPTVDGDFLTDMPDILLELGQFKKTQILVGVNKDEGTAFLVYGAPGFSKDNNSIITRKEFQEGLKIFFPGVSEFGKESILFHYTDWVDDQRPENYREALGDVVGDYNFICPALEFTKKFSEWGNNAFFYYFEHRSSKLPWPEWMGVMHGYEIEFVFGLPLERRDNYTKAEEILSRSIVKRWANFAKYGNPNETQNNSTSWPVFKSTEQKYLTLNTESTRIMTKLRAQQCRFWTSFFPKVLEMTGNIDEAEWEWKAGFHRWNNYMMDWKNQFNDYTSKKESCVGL

Compound	cytotoxicity (in words) [1]	IC50 [1] [µM]	cytotoxicity (in words) [2]	IC50 [2] [µM]	IC50 [3] [µM]	IC50 [4] [µM]	IC50 [5] [µM]	DNA synthesis inhibition percent [6] [%]	DNA synthesis inhibition percent [7] [%]	Early and Late Apoptotic Cells % A549 Cells [8] [%]	Viability % A549 Cells [8] [%]	Early and Late Apoptotic Cells % C6 Cells [9] [%]	Viability % C6 Cells [9] [%]	P2 (%) mitochondrial membrane polarized cells, A549 Cells [10] [%]	P3 (%) mitochondrial membrane depolarized cells, A549 Cells [10] [%]	P2 (%) mitochondrial membrane polarized cells, C6 Cells [11] [%]	P3 (%) mitochondrial membrane depolarized cells, C6 Cells [11] [%]	inhibitory activity against AChE (in words) [4]	inhibition on BuChE (in words) [5]
S=C(NN=Cc1ccccc1)Nc1ccc2c(c1)OCO2 [Compound 1, 4-(1,3-Benzodioxole-5-yl)-1-(benzylidene)thiosemicarbazide]	no significant cytotoxicity	> 167	no significant cytotoxicity	> 167	> 167	> 267	> 213	–	–	–	–	–	–	–	–	–	–	–	–
O=[N+]([O-])c1ccc(C=NNC(=S)Nc2ccc3c(c2)OCO3)cc1 [Compound 2, 4-(1,3-Benzodioxole-5-yl)-1-(4-nitrobenzylidene)thiosemicarbazide]	–	24 ± 3.46	–	23.3 ± 2.08	> 145	> 232	> 213	59.85	63.34	23.7	75.2	5.4	94.5	4.5	9.8	44.8	21.1	–	–
N#Cc1ccc(C=NNC(=S)Nc2ccc3c(c2)OCO3)cc1 [Compound 3, 4-(1,3-Benzodioxole-5-yl)-1-(4-cyanobenzylidene)thiosemicarbazide]	–	28 ± 1	–	49.3 ± 1.15	> 154	> 213	> 213	53.24	54.99	–	–	–	–	–	–	–	–	did not show any inhibitory activity	–
CN(C)c1ccc(C=NNC(=S)Nc2ccc3c(c2)OCO3)cc1 [Compound 4, 4-(1,3-Benzodioxole-5-yl)-1-(4-dimethylaminobenzylidene)thiosemicarbazide]	no significant cytotoxicity	> 146	no significant cytotoxicity	> 146	> 146	> 234	> 213	–	–	–	–	–	–	–	–	–	–	–	–
S=C(NN=Cc1ccc(-c2ccccc2)cc1)Nc1ccc2c(c1)OCO2 [Compound 5, 4-(1,3-Benzodioxole-5-yl)-1-[(biphenyl-4-yl)methylene]thiosemicarbazide]	–	10.7 ± 1.53	–	4.33 ± 1.04	21.3 ± 5.77	> 213	> 213	57.79	62.98	12.11	81.8	25.0	60.2	52.7	24.6	49.8	45.0	did not show any inhibitory activity	–
Fc1ccc(C=NNC(=S)Nc2ccc3c(c2)OCO3)cc1 [Compound 6, 4-(1,3-Benzodioxole-5-yl)-1-(4-fluorobenzylidene)thiosemicarbazide]	no significant cytotoxicity	> 158	no significant cytotoxicity	> 158	2.87 ± 0.05	> 252	> 213	–	–	–	–	–	–	–	–	–	–	–	–
S=C(NN=Cc1ccc(Cl)cc1)Nc1ccc2c(c1)OCO2 [Compound 7, 4-(1,3-Benzodioxole-5-yl)-1-(4-chlorobenzylidene)thiosemicarbazide]	no significant cytotoxicity	> 150	no significant cytotoxicity	> 150	9.5 ± 2.5	> 240	> 240	–	–	–	–	–	–	–	–	–	–	–	weak inhibition
S=C(NN=Cc1ccc(Br)cc1)Nc1ccc2c(c1)OCO2 [Compound 8, 4-(1,3-Benzodioxole-5-yl)-1-(4-bromobenzylidene)thiosemicarbazide]	no significant cytotoxicity	> 132	no significant cytotoxicity	> 132	9.16 ± 2.47	> 212	> 212	–	–	–	–	–	–	–	–	–	–	–	weak inhibition
S=C(NN=Cc1ccc(Cl)c(Cl)c1)Nc1ccc2c(c1)OCO2 [Compound 9, 4-(1,3-Benzodioxole-5-yl)-1-(3,4-dichlorobenzylidene)thiosemicarbazide]	–	51.5 ± 4.95	–	25.3 ± 1.53	> 136	205 ± 5	> 213	27.3	37.71	–	–	–	–	–	–	–	–	–	–
S=C(N/N=C/c1cc2c(cc1Br)OCO2)Nc1ccc2c(c1)OCO2 [Compound 10]	–	29.7 ± 5.51	–	12.3 ± 4.93	38.3 ± 2.08	108 ± 3.53	> 189	56.38	53.96	6.2	81.2	15.8	69.6	21.9	57.9	35.1	63.7	–	weak inhibition
